Experimental data taken from patent publication US7250157B2, “Dermatological compositions and methods” (Applied Genetics Incorporated Dermatics, priority 1996, dated 2007).

Assays:
[1] = tested on: Cloudman S91 mouse melanoma cell line; experiment: Melanin content of S91 cells after treatment with test compound; format: cell-based; conditions: for induction of melanogenesis (in words): concentrations tested in Example 2
Procedure: The Cloudman S91 mouse melanoma cell line was obtained from American Type Culture Collection (ATCC). […] For testing propylene glycol and analogues for induction of melanogenesis, S91 cells were plated at 10^5 cells/35 mm dish in 10% calf serum. […] Cells were cultured for 6 days at 37° C. in 5% CO2 in a humidified incubator. Following this treatment period, cells were examined microscopically and the portion of dedifferentiated and differentiated cells was estimated.
Following this microscopic examination, cells were detached from dishes by trypsin. The time required for detachment by trypsin was recorded as an additional indicator of the phenotypic effects of test compounds. For each treatment, a subsample of cells was counted to determine the effects of treatment compounds on cellular proliferation. The remainder of cells were used for determination of melanin content. […] Absorbance of standards and samples was measured at 475 nm. Melanin was expressed as pg melanin/cell.

[2] = tested on: Cloudman S91 mouse melanoma cell line; experiment: Cell count (proliferation, toxicity) of treated S91 cells; format: cell-based
Procedure: (§1) The Cloudman S91 mouse melanoma cell line was obtained from American Type Culture Collection (ATCC). Cells were cultured in Dulbecco's Modified Eagles Medium (DMEM) containing 10% calf serum, 2 mM L-glutamine, 10 U Penicillin/ml and 10 ug Streptomycin/ml according to a previously published protocol (Eller, et al., Proc. Natl. Acad. Sci. 93:1087-92. 1996). For testing propylene glycol and analogues for induction of melanogenesis, S91 cells were plated at 10^5 cells/35 mm dish in 10% calf serum. One day after plating, media was removed and replaced with media containing 2% calf serum and test compounds (Eller, et al., 1996). Cells were cultured for 6 days at 37° C. in 5% CO2 in a humidified incubator. Following this treatment period, cells were examined microscopically and the portion of dedifferentiated and differentiated cells was estimated. Previous studies have shown that dedifferentiated S91 cells have a rounded, spindly appearance while differentiated S91 cells have a flattened, cuboidal, multipolar and dendritic appearance (Orlow, et al., Exp. Cell Res. 191:209-218, 1990).
(§2) Following this microscopic examination, cells were detached from dishes by trypsin. The time required for detachment by trypsin was recorded as an additional indicator of the phenotypic effects of test compounds. For each treatment, a subsample of cells was counted to determine the effects of treatment compounds on cellular proliferation. The remainder of cells were used for determination of melanin content. Melanin was extracted from cells by vortexing for 15 min in 1N NaOH. Standards were prepared by dissolving melanin (Sigma) in 1 N NaOH (Eller, et al., 1996). Absorbance of standards and samples was measured at 475 nm. Melanin was expressed as pg melanin/cell.

[3] = tested on: Cloudman S91 mouse melanoma cell line; experiment: Microscopic morphology (differentiation) of S91 cells; format: cell-based
Procedure: as §1

[4] = tested on: Cloudman S91 mouse melanoma cell line; experiment: Trypsinization detachment time of S91 cells; format: cell-based
Procedure: as §2

[5] = tested on: American short-haired guinea pigs; experiment: Topical melanogenesis (pigmentation rating) in guinea pigs; format: in vivo, guinea pig; set-up: Pigmentation Rating / Pigmentation Rating Background Corrected: scale not given here; conditions: for melanogenesis in guinea pigs (in words): same relative body position; for relative melanogenesis rating (mean ±SE), scale 0-4: 25 μl twice per day for 5 days, rated two weeks after
Procedure: Compounds were tested for melanogenic activity in vivo by application to American short-haired guinea pigs. Treatment sites were created by removal of fur using Nair® brand depilatory. In the Table, the numbers presented are the relative melanogenesis rating (mean ±SE), and are arranged according to the relative location on the animal, with the head being to the left and the tail being to the right. Propylene glycol (PG=13.6M), 2,3-butanediol (2,3-BD=10.95M), and 1,2-cis-cyclopentanediol (1,2-cs-CPD=10.7M) were applied as full strength solutions. 3,3-dimethyl-1,2-butanediol (3,3-M-1,2-BD) was applied as a 4M solution dissolved in ethanol. Two weeks following cessation of treatments, the degree of pigmentation was subjectively rated according to the following scale:
In order to minimize the effects of dimunition of response from head to tails of animals, all future experiments were done using only treatment spots located towards the tails of animals (c and d in Table 7). Deemed as additionally beneficial, in this area of the animal differences of responsiveness to strong and weak inducers of pigmentation, as deduced from cell culture, were greatest. […] Pigmentation ratings were corrected for background (control treatment spots), normalized to 1M to account for the different amounts of each agent applied, and then normalized to results for 1,2-PG (Table 8). […] It is anticipated that further improvements in formulation will additionally improve responsiveness to 5-NBene-2,2-DM and other compounds in this invention.
In FIG. 5, a, b, c and d indicate treatment spots that transverse the anterior-posterior axis along the backs of guinea pigs.

[6] = No Penetration Enhancer, concentrations as E85

Row | SMILES | pg Melanin/Cell ([1]; 50 mM) [pg Melanin/Cell] | ug Melanin ([1]; 50 mM) [µg] | pg Melanin/Cell ([1]; 150 mM) [pg Melanin/Cell] | ug Melanin ([1]; 150 mM) [µg] | Cells (×10^6) ([2]; 50 mM) | Cells (×10^6) ([2]; 150 mM) | reduction of cell numbers ([2]; 150 mM) | Morphology Flattened Cuboidal ([3]; 50 mM) [%] | Morphology Rounded Spindly ([3]; 50 mM) [%] | Morphology Flattened Cuboidal ([3]; 150 mM) [%] | Trypsinization Detachment Time ([4]; 50 mM) [min] | Trypsinization Detachment Time ([4]; 150 mM) [min] | Morphology Rounded Spindly ([3]; 150 mM) [%] | other results
1 | CC(O)CCO (stereo not shown) [BD-1,3, 1,3-butanediol] | 15.5 | 0.99 | 18.1 | 0.87 | 0.064 ×10^6 | 0.048 ×10^6 | one-third | 75 | 25 | 100 | 3 | 6 |  | 
2 | CC(CO)CO [2-M-1,3-PG, 2-Methyl-1,3-Propanediol] |  |  |  |  |  |  |  |  |  |  |  |  |  | Concentration Required for ≧2-fold Melanin Induction in S91 Cells [1]: 50 mM; Pigmentation Rating Normalized to 1,2-PG [5, 6]: 2.9 ± 0.4; Pigmentation Rating Normalized to 1M [5, 6]: 0.044 ± 0.006; Pigmentation Rating Background Corrected ([5]; No Penetration Enhancer, corrected for Nair control, concentrations as E85): 0.50 ± 0.07; Pigmentation Rating ([5]; No Penetration Enhancer, sites c and d, 13.61M 1,2-PG, 11.0M 2,3-M-2,3-BD, 11.3M 2-M-1,3-PG, 8.7M 1,2-cs-CPD, 4.0M 3,3-M-1,2-BD): 0.58 ± 0.08; melanogenesis in guinea pigs (in words) [5]: only slightly better melanogenic agents than propylene glycol; relative melanogenesis rating (mean ±SE), scale 0-4 ([5]; site a (head), PG 13.6M, 2,3-BD 10.95M, 1,2-cs-CPD 10.7M full strength, 3,3-M-1,2-BD 4M in ethanol): 1.25 ± 0.52; relative melanogenesis rating (mean ±SE), scale 0-4 ([5]; site c, full strength, 3,3-M-1,2-BD 4M in ethanol): 0.58 ± 0.08^2
3 | OCC(O)CO [G, Glycerol] | 11.2 | 1.03 | 13.0 | 1.09 | 0.092 ×10^6 | 0.084 ×10^6 |  |  | 100 | 25 | 3 | 3 | 75 | induction of melanogenesis (in words) [1]: only a slight effect on melanogenesis and differentiation
4 | CCO [ETOH, Ethanol] |  |  |  |  |  |  |  |  |  |  |  |  |  | pg Melanin/Cell ([1]; 1.0% (170 mM)): 11.0 pg Melanin/Cell; ug Melanin ([1]; 1.0% (170 mM)): 1.14 µg; pg Melanin/Cell ([1]; 2.0% (340 mM)): 12.5 pg Melanin/Cell; ug Melanin ([1]; 2.0% (340 mM)): 1.25 µg; pg Melanin/Cell ([1]; 5.0% (850 mM)): 5.3 pg Melanin/Cell; ug Melanin ([1]; 5.0% (850 mM)): 0.17 µg; induction of melanogenesis (in words) [1]: did not induce melanogenesis; effect on cells ([2]; 340 mM): no effect on cells; toxicity (low cell survival) ([2]; 850 mM): toxic; Cells (×10^6) ([2]; 1.0% (170 mM)): 0.104 ×10^6; Cells (×10^6) ([2]; 2.0% (340 mM)): 0.100 ×10^6; Cells (×10^6) ([2]; 5.0% (850 mM)): 0.032 ×10^6; Morphology Rounded Spindly ([3]; 1.0% (170 mM)): 100%; Morphology Rounded Spindly ([3]; 2.0% (340 mM)): 100%; Morphology Rounded Spindly ([3]; 5.0% (850 mM)): 100%; Trypsinization Detachment Time ([4]; 1.0% (170 mM)): 3 min; Trypsinization Detachment Time ([4]; 2.0% (340 mM)): 3 min; Trypsinization Detachment Time ([4]; 5.0% (850 mM)): 3 min
5 | O=C1CCCN1 [2-pyrrolidone] |  |  |  |  |  |  |  |  |  |  |  |  |  | melanogenesis in S91 cells (≧2-fold increase = significant) ([1]; range of concentrations up to a toxic dose): did not induce significant (≧2-fold increase) melanogenesis; morphological differentiation of S91 cells [3]: profound morphological differentiation
6 | C[C@H](O)CO [PG-S-1,2, (S)-(+)-1,2-Propanediol] | 17.1 | 1.51 | 25.5 | 2.04 | 0.088 ×10^6 | 0.080 ×10^6 |  | 25 | 75 | 50 | 3 | 6 | 50 | effect on cell proliferation ([2]; levels used in this experiment (50 and 150 mM)): no reduction of cell proliferation
7 | OCCCO [PG-1,3, 1,3-propanediol] | 20.4 | 1.31 | 23.6 | 1.04 | 0.064 ×10^6 | 0.044 ×10^6 | one-third | 25 | 75 | 50 | 3 | 6 | 50 | 
8 | CC(O)C(C)O (stereo not shown) [BD-2,3, 2,3-butanediol] | 15.6 | 1.12 | 23.8 | 0.95 | 0.072 ×10^6 | 0.040 ×10^6 | one-third | 75 | 25 | 100 | 3 | 9 |  | Concentration Required for ≧2-fold Melanin Induction in S91 Cells [1]: 100 mM; melanogenesis in guinea pigs (in words) [5]: only slightly better melanogenic agents than propylene glycol; relative melanogenesis rating (mean ±SE), scale 0-4 ([5]; site b, full strength solutions): 1.33 ± 0.17^2; relative melanogenesis rating (mean ±SE), scale 0-4 ([5]; site d (tail), full strength solutions): 0.25 ± 0.14
